{"source": "paper PMC7763995", "about": "(Molecules, 2020)", "key": {"Porcine liver CES": {"system": "Porcine liver CES", "assay": "In vitro CES inhibition, 4-NPA substrate", "type": "biochemical", "settings": "compound concentration 20 µM; n.a. = not active", "protocol": "(§1) Measurements were performed with a FLUOStar Optima microplate reader (BMG Labtech, Ortenberg, Germany). Compounds were dissolved in DMSO, the incubation mixture contained 2% solvent."}, "Human erythrocyte AChE": {"target": "T1, Human erythrocyte AChE (Homo sapiens, UniProt P22303)", "T1 construct": "AChE from human erythrocytes was used; purchased Sigma-Aldrich; host or cells: human erythrocytes", "T1 sequence (P22303 32-617 isoform P22303-2 limits assumed)": "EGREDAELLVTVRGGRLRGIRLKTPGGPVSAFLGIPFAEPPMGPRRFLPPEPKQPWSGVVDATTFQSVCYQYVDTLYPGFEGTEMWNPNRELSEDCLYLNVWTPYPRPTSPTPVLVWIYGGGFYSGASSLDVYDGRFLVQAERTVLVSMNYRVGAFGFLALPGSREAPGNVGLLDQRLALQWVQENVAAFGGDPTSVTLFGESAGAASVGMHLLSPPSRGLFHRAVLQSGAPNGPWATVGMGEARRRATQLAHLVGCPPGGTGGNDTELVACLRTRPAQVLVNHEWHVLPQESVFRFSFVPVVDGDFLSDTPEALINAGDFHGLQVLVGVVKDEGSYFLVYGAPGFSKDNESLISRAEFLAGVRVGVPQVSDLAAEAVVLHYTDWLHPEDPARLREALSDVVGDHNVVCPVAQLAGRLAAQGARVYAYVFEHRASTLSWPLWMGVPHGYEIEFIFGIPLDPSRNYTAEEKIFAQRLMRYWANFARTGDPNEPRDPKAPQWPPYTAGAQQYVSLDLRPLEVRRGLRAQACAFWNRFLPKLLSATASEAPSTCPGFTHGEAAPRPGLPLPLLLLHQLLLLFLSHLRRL", "assay": "biochemical", "settings": "mean ± SEM, n = 3; n.a. = not active; read-out: Human Erythrocyte AChE, IC50", "protocol": "as §1"}, "Equine serum BChE": {"target": "T2, Equine serum BChE (Equus caballus, UniProt P81908)", "T2 construct": "equine serum BChE; purchased Sigma-Aldrich; host or cells: equine serum", "T2 sequence (P81908 whole entry)": "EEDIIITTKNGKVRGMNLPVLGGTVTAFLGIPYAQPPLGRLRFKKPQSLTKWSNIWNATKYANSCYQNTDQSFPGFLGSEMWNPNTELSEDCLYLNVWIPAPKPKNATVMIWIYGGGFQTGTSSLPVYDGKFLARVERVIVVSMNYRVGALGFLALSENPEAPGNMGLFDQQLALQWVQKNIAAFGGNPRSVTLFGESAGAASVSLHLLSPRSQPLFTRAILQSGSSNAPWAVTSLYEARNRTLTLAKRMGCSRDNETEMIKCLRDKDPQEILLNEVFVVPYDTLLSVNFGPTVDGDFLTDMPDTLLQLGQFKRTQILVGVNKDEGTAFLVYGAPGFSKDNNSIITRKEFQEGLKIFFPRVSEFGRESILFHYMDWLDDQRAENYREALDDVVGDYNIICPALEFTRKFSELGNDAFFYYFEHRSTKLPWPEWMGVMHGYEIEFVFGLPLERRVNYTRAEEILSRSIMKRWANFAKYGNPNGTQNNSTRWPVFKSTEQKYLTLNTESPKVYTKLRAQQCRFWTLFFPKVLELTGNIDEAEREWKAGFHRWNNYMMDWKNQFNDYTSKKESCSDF", "assay": "biochemical", "protocol": "as §1"}, "mouse brain homogenate": {"system": "mouse brain homogenate", "assay": "Luminol chemiluminescence assay in mouse brain homogenate (TBHP-initiated)", "settings": "compound concentration 20 µM; mice brain homogenate", "protocol": "The work was carried out in accordance with the EU Directive 2010/63/EU. Hybrid BDF1 mice (about 6 months old) were sacrificed by decapitation. Each brain was rapidly excised, frozen in liquid nitrogen, and stored at −80°C until use. The brains were thawed and homogenized using a Wisd WiseTis HG-15D homogenizer for 2 min in a buffer (0.01 M PBS, pH 7.4 or 0.1 M Tris-HCl, pH 7.4). Protein concentrations were determined by the Lowry method.\nLuminol-dependent chemiluminescence produced by mouse brain homogenates was measured using a 1250 Luminometer (LKB Wallac, Turku, Finland) according to the assay by Di Meo et al. with minor modifications. The reaction mixture consisted of mouse brain homogenate (protein concentration 0.1 mg/mL) in 0.1 M Tris-HCl (Sigma-Aldrich), pH 7.4, luminol (Sigma-Aldrich) (0.05 mM), TBHP (Sigma-Aldrich) (0.073 M) and tested compounds at a concentration of 20 μM. This was placed in a light-proof luminometer chamber and the background reading was recorded. All measurements were carried out at 37°C. The gain control was set to give a reading of 10 mV using a built-in standard. The free radical content in mouse brain homogenate was evaluated by the change in the light sum (the area under the kinetic curve of luminescence intensity for the entire luminescence time). All compounds were examined at least in triplicate. The effects of tested compounds were measured as the percentage decrease in the light sum relative to the control (a sample with no compound added)."}}}
{"smiles": "CC(C)(C)c1cc(C=NCCNc2c3c(nc4ccccc24)CCCCC3)cc(C(C)(C)C)c1O", "note": "[Compound 7c, 2,6-Di-tert-butyl-4-{[2-(7,8,9,10-tetrahydro-6H-cyclohepta[b]quinolin-11-ylamino)-ethylimino]-methyl}-phenol]", "values": [{"measurement": "Porcine Liver CES, (%) inhibition", "setting": "Porcine liver CES", "result": "30.1 ± 2.5", "unit": "%"}, {"measurement": "IC50", "setting": "Human erythrocyte AChE", "result": "4030 ± 30", "unit": "nM"}, {"measurement": "Selectivity for BChE", "setting": "Equine serum BChE; IC50 AChE / IC50 BChE", "result": 9.6}, {"measurement": "IC50", "setting": "Equine serum BChE; mean ± SEM, n = 3, n.a. = not active, read-out: Equine Serum BChE, IC50", "result": "419 ± 40", "unit": "nM"}, {"measurement": "Radical Scavenging Capacity in Luminol Chemiluminescence Assay, Luminescence Inhibition, %", "setting": "mouse brain homogenate", "result": "95.0 ± 0.4", "unit": "%"}]}
